Among the data in ChEMBL document CHEMBL4311957, “Recent advances in natural antifungal flavonoids and their derivatives” (Bioorg Med Chem Lett, 2019) are MIC and MFC values, retold here.

Holding throughout (assay type): functional
The test system of test [1] is Candida tropicalis. Briefly: Antifungal activity against FLC-resistant Candida tropicalis KKP 334.
For test [2], the system named is Yarrowia lipolytica. Briefly: Fungicidal activity against FLC-resistant Candida lipolytica KKP 332.
In test [3] the test system is Candida parapsilosis. Briefly: Fungicidal activity against FLC-resistant Candida parapsilosis DSM 5784. As to conditions: Lodderomyces parapsilosis.
Test [4] deals with Candida albicans. Briefly: Antifungal activity against FLC-resistant Candida stellatoidea CBS 1905.
For test [5], the system named is Candida albicans. Briefly: Fungicidal activity against FLC-resistant Candida albicans ATCC 10231.
Test [6] relates to Nakaseomyces glabratus. Briefly: Fungicidal activity against FLC-resistant Candida glabrata DSM 11226.
The subject of test [7] is Meyerozyma guilliermondii. Briefly: Fungicidal activity against FLC-resistant Candida guilliermondii DSM 11947.
Test [8] deals with Candida dubliniensis. Kind of test: Fungicidal activity against FLC-resistant Candida dubliniensis CBS 7987.
The subject of test [9] is Clavispora lusitaniae. Kind of test: Antifungal activity against FLC-resistant Candida lusitaniae DSM 70102.
Test [10] deals with Pichia kudriavzevii. Kind of test: Antifungal activity against FLC-resistant Candida krusei DSM 6128.
Test [11] can be described thus: Antifungal activity against FLC-resistant Candida arborea KKP 319.
Test [12] has as its system Candida albicans. Kind of test: Antifungal activity against FLC-resistant Candida albicans ATCC 10231.
Test [13] can be described thus: Fungicidal activity against FLC-resistant Candida arborea KKP 319.
The subject of test [14] is Candida albicans. Kind of test: Fungicidal activity against FLC-resistant Candida stellatoidea CBS 1905.
The test system of test [15] is Pichia kudriavzevii. Briefly: Fungicidal activity against FLC-resistant Candida krusei DSM 6128.
Test [16] deals with Candida parapsilosis. Kind of test: Antifungal activity against FLC-resistant Candida parapsilosis DSM 5784. As to conditions: Lodderomyces parapsilosis.
The test system of test [17] is Kluyveromyces marxianus. Kind of test: Fungicidal activity against FLC-resistant Candida pseudotropicalis KKP 324.
Test [18] relates to Nakaseomyces glabratus. Kind of test: Antifungal activity against FLC-resistant Candida glabrata DSM 11226.
Test [19] relates to Candida dubliniensis. Briefly: Antifungal activity against FLC-resistant Candida dubliniensis CBS 7987.
The subject of test [20] is Candida tropicalis. Briefly: Fungicidal activity against FLC-resistant Candida tropicalis KKP 334.
Test [21] concerns Clavispora lusitaniae. Kind of test: Fungicidal activity against FLC-resistant Candida lusitaniae DSM 70102.
The test system of test [22] is Kluyveromyces marxianus. Kind of test: Antifungal activity against FLC-resistant Candida pseudotropicalis KKP 324.
Test [23] has as its system Yarrowia lipolytica. Briefly: Antifungal activity against FLC-resistant Candida lipolytica KKP 332.
Test [24] deals with Meyerozyma guilliermondii. Briefly: Antifungal activity against FLC-resistant Candida guilliermondii DSM 11947.
The subject of test [25] is Aspergillus fumigatus. Briefly: Antifungal activity against Aspergillus fumigatus after 24 to 48 hrs.
For test [26], the system named is Candida parapsilosis. Kind of test: Antifungal activity against Candida parapsilosis ATCC 22019 after 24 hrs. The settings on record: Lodderomyces parapsilosis, ATCC 22019, 24 h.
For test [27], the system named is Candida albicans. Kind of test: Antifungal activity against Candida albicans ATCC 44859 after 24 to 48 hrs.
The subject of test [28] is Pichia kudriavzevii. Briefly: Antifungal activity against Candida krusei E 28 after 24 to 48 hrs.
In test [29] the test system is Nakaseomyces glabratus. Briefly: Antifungal activity against Candida glabrata ATCC 90030 after 24 hrs. The settings on record: ATCC 90030, 24 h.
Test [30] relates to Candida albicans. Briefly: Antifungal activity against Candida albicans ATCC 24433 after 24 hrs. As to conditions: ATCC 24433, 24 h.
Test [31] concerns Candida tropicalis. Kind of test: Antifungal activity against Candida tropicalis 156 after 24 to 48 hrs.
Test [32] has as its system Trichophyton mentagrophytes. Kind of test: Antifungal activity against Trichophyton mentagrophytes after 72 to 120 hrs.
The test system of test [33] is Nakaseomyces glabratus. Briefly: Antifungal activity against Candida glabrata 20/I after 24 to 48 hrs.
Test [34] has as its system Pichia kudriavzevii. Kind of test: Antifungal activity against Candida krusei ATCC 6258 after 24 hrs. The settings on record: ATCC 6258, 24 h.
In test [35] the test system is Candida albicans. Kind of test: Synergistic antifungal activity against Candida albicans by microbroth dilution method.
Test [36] has as its system Aspergillus fumigatus. Briefly: Antifungal activity against Aspergillus fumigatus after 24 hrs by broth dilution method.
Test [37] has as its system Candida albicans. Kind of test: Antifungal activity against Candida albicans after 24 hrs by broth dilution method.
Test [38] relates to Candida albicans. Kind of test: Antifungal activity against Candida albicans after 48 hrs by agar disc-diffusion method.
Test [39] relates to Trichophyton mentagrophytes. Kind of test: Antifungal activity against Trichophyton mentagrophytes after 24 hrs by broth dilution method.
The subject of test [40] is Trichophyton mentagrophytes. Kind of test: Fungicidal activity against Trichophyton mentagrophytes after 24 hrs by broth dilution method.
The subject of test [41] is Aspergillus fumigatus. Kind of test: Fungicidal activity against Aspergillus fumigatus after 24 hrs by broth dilution method.

Values after ≈ are worked out from the molar mass of the structure shown.

In the case of `COc1ccc2oc(=O)sc2c1C(=O)/C=C/c1ccc(OCCN(C)C)cc1`, the MIC lay in the range of 1 to 16 µg/mL (≈ 2.5 to 40.1 µM) in the test on Candida tropicalis [1]; 8 to 32 µg/mL (≈ 20 to 80.1 µM) with Yarrowia lipolytica [2]; 8 to 32 µg/mL (≈ 20 to 80.1 µM) in the test with Candida parapsilosis [3]; 1 to 16 µg/mL (≈ 2.5 to 40.1 µM) against Candida albicans [4]; 8 to 32 µg/mL (≈ 20 to 80.1 µM) in the test with Candida albicans [5]; 8 to 32 µg/mL (≈ 20 to 80.1 µM) in the test with Nakaseomyces glabratus [6]. Besides, the MIC fell in the range of 8 to 32 µg/mL (≈ 20 to 80.1 µM) in [7]; 8 to 32 µg/mL (≈ 20 to 80.1 µM) against Candida dubliniensis [8]; 1 to 16 µg/mL (≈ 2.5 to 40.1 µM) in the test with Clavispora lusitaniae [9]; 1 to 16 µg/mL (≈ 2.5 to 40.1 µM) against Pichia kudriavzevii [10]; 1 to 16 µg/mL (≈ 2.5 to 40.1 µM) in [11]; 1 to 16 µg/mL (≈ 2.5 to 40.1 µM) in the test on Candida albicans [12]. Further, the MIC was 8 to 32 µg/mL (≈ 20 to 80.1 µM) in test [13]; 8 to 32 µg/mL (≈ 20 to 80.1 µM) against Candida albicans [14]; 8 to 32 µg/mL (≈ 20 to 80.1 µM) in the test on Pichia kudriavzevii [15]; 1 to 16 µg/mL (≈ 2.5 to 40.1 µM) against Candida parapsilosis [16]; 8 to 32 µg/mL (≈ 20 to 80.1 µM) in the test on Kluyveromyces marxianus [17]; 1 to 16 µg/mL (≈ 2.5 to 40.1 µM) in the test on Nakaseomyces glabratus [18]. Also, the MIC fell in the range of 1 to 16 µg/mL (≈ 2.5 to 40.1 µM) in the test on Candida dubliniensis [19]; 8 to 32 µg/mL (≈ 20 to 80.1 µM) in the test with Candida tropicalis [20]; 8 to 32 µg/mL (≈ 20 to 80.1 µM) in the test with Clavispora lusitaniae [21]; 1 to 16 µg/mL (≈ 2.5 to 40.1 µM) against Kluyveromyces marxianus [22]; 1 to 16 µg/mL (≈ 2.5 to 40.1 µM) in the test with Yarrowia lipolytica [23]; 1 to 16 µg/mL (≈ 2.5 to 40.1 µM) in test [24].

With `O=C(/C=C/c1ccccc1[N+](=O)[O-])c1cnccn1`, the MIC was 7.81 to 500 µg/mL (≈ 30.6 to 1960 µM) against Aspergillus fumigatus [25]; 0.78 to 3.12 µg/mL (≈ 3.06 to 12.2 µM) against Candida parapsilosis [26]; 7.81 µg/mL (≈ 30.6 µM) in the test with Candida albicans [27]; 7.81 to 125 µg/mL (≈ 30.6 to 490 µM) against Pichia kudriavzevii [28]; 0.78 to 3.12 µg/mL (≈ 3.06 to 12.2 µM) with Nakaseomyces glabratus [29]; 0.78 to 3.12 µg/mL (≈ 3.06 to 12.2 µM) against Candida albicans [30]. Besides, the minimum inhibitory concentration (MIC) against Candida tropicalis [31] was in the range of 7.81 to 500 µg/mL (≈ 30.6 to 1960 µM); in [32], 6.51 to 31.2 µg/mL (≈ 25.5 to 122 µM); against Nakaseomyces glabratus [33], 7.81 to 41.6 µg/mL (≈ 30.6 to 163 µM); against Pichia kudriavzevii [34], 0.78 to 3.12 µg/mL (≈ 3.06 to 12.2 µM).

As for `C[C@@H]1O[C@@H](Oc2cc(O)c3c(=O)c(O)c(-c4ccc(O)c(O)c4)oc3c2)[C@H](O)[C@H](O)[C@H]1O`, the MIC in the test with Candida albicans [35] is greater than 64 µg/mL.

The compound `Cc1cc(O)c(C(=O)/C=C/c2coc3ccccc3c2=O)c(=O)o1` displayed an MFC in the test with Aspergillus fumigatus [36] of 50 µg/mL (≈ 154 µM). In the test with Candida albicans [37], this compound showed an MIC of 12.5 µg/mL (≈ 38.5 µM).

The compound `O=C(CN1CCCCC1)Nc1ccc(C(=O)/C=C/c2ccc(Cl)cc2)cc1` showed a minimal inhibitory concentration (MIC) against Candida albicans [38] of 2 µg/mL (≈ 5.22 µM).

As to `O=C1NC(=O)C(C(=O)/C=C/c2coc3ccccc3c2=O)C(=O)N1`, the minimal inhibitory concentration (MIC) (in [39]; in the test on Candida albicans [37]) was 12.5 µg/mL (≈ 38.3 µM) in each case. The MFC (in [40]; against Aspergillus fumigatus [41]) was 50 µg/mL (≈ 153 µM) each time.
